# Laboratory results as given in ChEMBL document CHEMBL1201862, “PubChem BioAssay data set” (2004).
#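 Briefly, cells in 96-well plates were exposed to five compound concentrations for 48 h, and endpoints were estimated by linear interpolation. Abbreviation: GI50, concentration required for 50% inhibition of growth.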 Calls of active or inactive are those of the source. No stated cut-off is given here; in the data, active = GI50 up to about 1.1 µM and inactive = higher.
# Experiments:
# Assay in all cases: DTP human tumour cell line panel, 48 h
# [1] = test system: 786-0
# [2] = test system: A498
# [3] = test system: A549
# [4] = test system: ACHN
# [5] = test system: BT-549
# [6] = test system: CAKI-1
# [7] = test system: CCRF-CEM
# [8] = test system: COLO 205
# [9] = test system: DU-145
# [10] = test system: EKVX
# [11] = test system: HCC 2998
# [12] = test system: HCT-116
# [13] = test system: HCT-15
# [14] = test system: HL-60
# [15] = test system: HOP-62
# [16] = test system: HOP-92
# [17] = test system: HT-29
# [18] = test system: Hs-578T
# [19] = test system: IGROV-1
# [20] = test system: K562
# [21] = test system: KM12
# [22] = test system: LOX IMVI
# [23] = test system: M14
# [24] = test system: MCF7
# [25] = test system: MDA-MB-231
# [26] = test system: MDA-MB-435
# [27] = test system: MDA-N
# [28] = test system: MOLT-4
# [29] = test system: Malme-3M
# [30] = test system: NCI-H226
# [31] = test system: NCI-H23
# [32] = test system: NCI-H460
# [33] = test system: NCI-H522
# [34] = test system: NCI/ADR-RES
# [35] = test system: OVCAR-3
# [36] = test system: OVCAR-4
# [37] = test system: OVCAR-5
# [38] = test system: OVCAR-8
# [39] = test system: PC-3
# [40] = test system: RPMI-8226
# [41] = test system: RXF 393
# [42] = test system: SF-268
# [43] = test system: SF-295
# [44] = test system: SF-539
# [45] = test system: SK-MEL-28
# [46] = test system: SK-MEL-2
# [47] = test system: SK-MEL-5
# [48] = test system: SK-OV-3
# [49] = test system: SN12C
# [50] = test system: SNB-19
# [51] = test system: SNB-75
# [52] = test system: SR
# [53] = test system: SW-620
# [54] = test system: T47D
# [55] = test system: TK-10
# [56] = test system: U-251
# [57] = test system: UACC-257
# [58] = test system: UACC-62
# [59] = test system: UO-31
structure (smiles),measurement,setting,value
O=C(O)/C=C/C(=O)Nc1cccc2c1-c1ccccc1C2=O,GI50,[1],9.53 µM (inactive)
same,GI50,[2],53 µM (inactive)
same,GI50,[3],20.9 µM (inactive)
same,GI50,[4],17.3 µM (inactive)
same,GI50,[5],16.9 µM (inactive)
same,GI50,[6],4.26 µM (inactive)
same,GI50,[7],4.32 µM (inactive)
same,GI50,[8],13.1 µM (inactive)
same,GI50,[9],10.3 µM (inactive)
same,GI50,[10],> 90.8 µM (inactive)
same,GI50,[11],22.2 µM (inactive)
same,GI50,[12],42.8 µM (inactive)
same,GI50,[13],10.2 µM
same,GI50,[14],1.28 µM (inactive)
same,GI50,[15],8.75 µM (inactive)
same,GI50,[16],4.06 µM (inactive)
same,GI50,[17],22.3 µM (inactive)
same,GI50,[18],3.76 µM (inactive)
same,GI50,[19],4.75 µM (inactive)
same,GI50,[20],3.91 µM (inactive)
same,GI50,[21],16.9 µM (inactive)
same,GI50,[22],8.91 µM (inactive)
same,GI50,[23],9.4 µM (inactive)
same,GI50,[24],11.3 µM (inactive)
same,GI50,[25],13.3 µM (inactive)
same,GI50,[26],2.85 µM (inactive)
same,GI50,[27],2.99 µM (inactive)
same,GI50,[28],2.63 µM (inactive)
same,GI50,[29],8.28 µM (inactive)
same,GI50,[30],31.2 µM (inactive)
same,GI50,[31],18.2 µM (inactive)
same,GI50,[32],3.67 µM (inactive)
same,GI50,[33],3.25 µM (inactive)
same,GI50,[34],10.3 µM (inactive)
same,GI50,[35],2.21 µM (inactive)
same,GI50,[36],22.9 µM (inactive)
same,GI50,[37],> 63.4 µM (inactive)
same,GI50,[38],21.6 µM (inactive)
same,GI50,[39],5.7 µM (inactive)
same,GI50,[40],8.81 µM (inactive)
same,GI50,[41],8.2 µM (inactive)
same,GI50,[42],16.3 µM (inactive)
same,GI50,[43],3.57 µM (inactive)
same,GI50,[44],3.46 µM (inactive)
same,GI50,[45],> 29.6 µM (inactive)
same,GI50,[46],3.56 µM (inactive)
same,GI50,[47],4.39 µM (inactive)
same,GI50,[48],22.9 µM (inactive)
same,GI50,[49],36.6 µM (inactive)
same,GI50,[50],17.9 µM (inactive)
same,GI50,[51],> 20.6 µM (inactive)
same,GI50,[52],9.2 µM (inactive)
same,GI50,[53],5.53 µM (inactive)
same,GI50,[54],> 51.5 µM (inactive)
same,GI50,[55],5.68 µM (inactive)
same,GI50,[56],5.27 µM (inactive)
same,GI50,[57],3.75 µM (inactive)
same,GI50,[58],6.58 µM (inactive)
same,GI50,[59],11.8 µM (inactive)
O=C(CC(c1ccccc1)N1CCCCC1)c1ccccc1 (configuration not stated),GI50,[1],11.2 µM (inactive)
same,GI50,[2],15.6 µM (inactive)
same,GI50,[3],20.5 µM (inactive)
same,GI50,[4],17 µM (inactive)
same,GI50,[5],18.2 µM (inactive)
same,GI50,[6],15.7 µM (inactive)
same,GI50,[7],2.09 µM (inactive)
same,GI50,[8],20.1 µM (inactive)
same,GI50,[9],15.1 µM (inactive)
same,GI50,[10],17.7 µM (inactive)
same,GI50,[11],4.62 µM (inactive)
same,GI50,[12],7.31 µM (inactive)
same,GI50,[13],14.9 µM
same,GI50,[14],12.5 µM (inactive)
same,GI50,[15],17.7 µM (inactive)
same,GI50,[16],15 µM (inactive)
same,GI50,[17],13.8 µM (inactive)
same,GI50,[18],24.8 µM (inactive)
same,GI50,[19],14 µM (inactive)
same,GI50,[20],1.44 µM (inactive)
same,GI50,[21],6.82 µM (inactive)
same,GI50,[22],5.66 µM (inactive)
same,GI50,[23],21.5 µM (inactive)
same,GI50,[24],2.47 µM (inactive)
same,GI50,[25],18.9 µM (inactive)
same,GI50,[26],12.2 µM (inactive)
same,GI50,[27],12.2 µM (inactive)
same,GI50,[28],1.96 µM (inactive)
same,GI50,[29],16 µM (inactive)
same,GI50,[30],18.4 µM (inactive)
same,GI50,[31],16 µM (inactive)
same,GI50,[32],13 µM (inactive)
same,GI50,[33],12.9 µM (inactive)
same,GI50,[34],22.5 µM (inactive)
same,GI50,[35],11.2 µM (inactive)
same,GI50,[36],18.4 µM (inactive)
same,GI50,[37],17.5 µM (inactive)
same,GI50,[38],15.5 µM (inactive)
same,GI50,[39],15 µM (inactive)
same,GI50,[40],2.49 µM (inactive)
same,GI50,[41],18 µM (inactive)
same,GI50,[42],16 µM (inactive)
same,GI50,[43],16.5 µM (inactive)
same,GI50,[44],19 µM (inactive)
same,GI50,[45],17.8 µM (inactive)
same,GI50,[46],19.8 µM (inactive)
same,GI50,[47],15.6 µM (inactive)
same,GI50,[48],17.6 µM (inactive)
same,GI50,[49],15.6 µM (inactive)
same,GI50,[50],19.6 µM (inactive)
same,GI50,[51],16.6 µM (inactive)
same,GI50,[52],1.7 µM (inactive)
same,GI50,[53],4.06 µM (inactive)
same,GI50,[54],17.9 µM (inactive)
same,GI50,[55],14.2 µM (inactive)
same,GI50,[56],9.51 µM (inactive)
same,GI50,[57],14.4 µM (inactive)
same,GI50,[58],16.6 µM (inactive)
same,GI50,[59],19.2 µM (inactive)
CC(O)C1(O)C(O)CC(OC2c3cc4c(c(O)c3[C@@H]3C[C@@]2(C)OC32C=c3cc[nH]c3=N2)C(=O)c2cccc(O)c2C4=O)OC1C (some centres not stated),GI50,[1],1.04 µM (active)
same,GI50,[2],1.29 µM (inactive)
same,GI50,[3],0.433 µM (active)
same,GI50,[4],0.759 µM (active)
same,GI50,[5],5.56 µM (inactive)
same,GI50,[6],1.33 µM (inactive)
same,GI50,[7],0.34 µM (active)
same,GI50,[8],0.697 µM (active)
same,GI50,[9],1.15 µM (inactive)
same,GI50,[10],1.11 µM (active)
same,GI50,[11],1.11 µM (active)
same,GI50,[12],0.789 µM (active)
same,GI50,[13],2.03 µM
same,GI50,[14],0.598 µM (active)
same,GI50,[15],1.06 µM (active)
same,GI50,[16],1.64 µM (inactive)
same,GI50,[17],0.644 µM (active)
same,GI50,[18],1.73 µM (inactive)
same,GI50,[19],0.592 µM (active)
same,GI50,[20],0.935 µM (active)
same,GI50,[21],1.07 µM (active)
same,GI50,[22],0.555 µM (active)
same,GI50,[23],1.34 µM (inactive)
same,GI50,[24],0.762 µM (active)
same,GI50,[25],1.06 µM (active)
same,GI50,[26],1.63 µM (inactive)
same,GI50,[27],1.81 µM (inactive)
same,GI50,[28],0.334 µM (active)
same,GI50,[29],0.938 µM (active)
same,GI50,[30],0.701 µM (active)
same,GI50,[31],1.53 µM (inactive)
same,GI50,[32],0.401 µM (active)
same,GI50,[33],0.307 µM (active)
same,GI50,[34],3.44 µM (inactive)
same,GI50,[35],1.08 µM (active)
same,GI50,[36],2.38 µM (inactive)
same,GI50,[37],3.08 µM (inactive)
same,GI50,[38],0.959 µM (active)
same,GI50,[39],1.23 µM (inactive)
same,GI50,[40],0.948 µM (active)
same,GI50,[41],1.05 µM (active)
same,GI50,[42],1.79 µM (inactive)
same,GI50,[43],1.87 µM (inactive)
same,GI50,[44],1.19 µM (inactive)
same,GI50,[45],1.7 µM (inactive)
same,GI50,[46],1.6 µM (inactive)
same,GI50,[47],3.06 µM (inactive)
same,GI50,[48],1.75 µM (inactive)
same,GI50,[49],0.607 µM (active)
same,GI50,[50],2.34 µM (inactive)
same,GI50,[51],1.26 µM (inactive)
same,GI50,[52],0.287 µM (active)
same,GI50,[53],0.809 µM (active)
same,GI50,[54],3.1 µM (inactive)
same,GI50,[55],1.71 µM (inactive)
same,GI50,[56],1.53 µM (inactive)
same,GI50,[57],1.48 µM (inactive)
same,GI50,[58],1.31 µM (inactive)
same,GI50,[59],1.77 µM (inactive)
